Assays:
[1] = even if several grams are taken; cited from earlier work
[2] = system: pancreatin (Panzytrat 40,000)
Method: Both media are from the company Biorelevant®, Ltd. in Great Britain. In addition, in some experiments porcine pancreas is added (Panzytrat® 40,000, Fa. Allergan).
The pancreatin is used in the form of the commercially available product Panzytrat® 40,000 from the Allergan company. The whole mixture is stirred on a hot plate at 50° C.; the course of the reaction is determined and monitored by continuously recording the acid number over time.

| cleavage by pancreatin [2] | Molecule | duration of ketosis [1] |
| --- | --- | --- |
|  | CC(O)CC(=O)O (stereo not shown) [3-hydroxybutyric acid] | three to four |
| cleaved | 3-oxobutyric acid di-diglycerol ester |  |
| cleaved | 3-oxobutyric acid tri-diglycerol ester |  |
| cleaved | 3-oxobutyric acid mono-diglycerol ester |  |
